Measurements reported in patent publication US9809598B2 (Merck Patent GmbH, priority 2014, dated 2017).
Where a name gives a salt, the structure may show the parent alone. Read-outs that look alike come from different tables or passages of the source.

Tests used:
PARP-1 = biological target: T1, PARP-1 (Homo sapiens, UniProt P09874); assay: PARP-1 autoparsylation assay (HTRF); assay type: biochemical; conditions: His-tagged Parp-1, autoparsylation HTRF
T1 construct: purchased Enzo Life Sciences GmbH, Lörrach, Germany
Excerpt: Description of the PARP1 Assay
Biochemical Activity Testing of PARP-1: Autoparsylation Assay
The autoparsylation assay is run in two steps: the enzymatic reaction in which His-tagged Parp-1 transfers biotinylated ADP-ribose/ADP-ribose to itself from biotinylated NAD/NAD as co-substrate and the detection reaction where a time resolved FRET between cryptate labelled anti-His antibody bound to the His tag of the enzyme and Xlent® labelled-streptavidin bound the biotin-parsylation residue is analysed. The autoparsylation activity is detectable directly via the increase in HTRF signal.
The autoparsylation assay is performed as 384-well HTRF® (Cisbio, Codolet, France) assay format in Greiner low volume nb 384-well microtiter plates. […] The ratio of the emission signals is determined. The full value used is the inhibitor-free reaction. The pharmacological zero value used is Olaparib (LClabs, Woburn, US) in a final concentration of 1 μM. The inhibitory values (IC50) are determined using either the program Symyx Assay Explorer® or Condosseo® from GeneData.

Tankyrases = conditions: read-out: EC50 [M] TNKS cellular assay; DLD1 cells, 24 hours, Axin2 increase
TNKS2 = biological target: T2, TNKS2 (Homo sapiens, UniProt Q9H2K2); assay: TNKS2 activity ELISA (autoparsylation assay); assay type: biochemical
T2 construct: GST-tagged Tnks-2 (873-1166 aa, prepared in-house); made in house
Protocol: (§1) Description of the TNKS1 and TNKS2 ELISA Assay
(§2) Biochemical Activity Testing of TNKS 1 and 2: Activity ELISA (Autoparsylation Assay)
(§3) For analysis of autoparsylation activity of TNKS 1 and 2 an activity ELISA iss performed: In the first step GST tagged TNKS is captured on a Glutathione coated plate. Then the activity assay with biotinylated NAD is performed in the absence/presence of the compounds. During the enzymatic reaction GST tagged TNKS transfers biotinylated ADP-ribose to itself from biotinylated NAD as co-substrate. For the detection streptavidin-HRP conjugate is added that binds to the biotinylated TNKS and is thereby captured to the plates. The amount of biotinylated resp. autoparsylated TNKS is detected with a luminescence substrate for HRP. The level of the luminescence signal correlats directly with the amount of autoparsylated TNKS and therefore with activity of TNKS.
(§4) The activity ELISA is performed in 384 well Glutathione coated microtiter plates (Express capture Glutathione coated plate, Biocat, Heidelberg, Germany). The plates are pre-equilibrated with PBS. […] The plates are washed 3 times with PBS-Tween-20. The wells are blocked by incubation at room temperature for 20 minutes with 50 μl blocking buffer (PBS, 0.05% Tween-20, 0.5% BSA). Afterwards the plates are washed 3 times with PBS-Tween-20. […] The reaction is stopped by 3 times washing with PBS-Tween-20. For the detection 50 μl of 20 ng/μl Streptavidin, HRP conjugate (MoBiTec, Göttingen, Germany) in PBS/0.05% Tween-20/0.01% BSA are added and the plates are incubated for 30 minutes at room temperature. After three times washing with PBS-Tween-20 50 μl of SuperSignal ELISA Femto Maximum sensitivity substrate solution (ThermoFisherScientific (Pierce), Bonn, Germany) are added. Following a 1 minute incubation at room temperature luminescence signals are measured with an Envision multimode reader (Perkin Elmer LAS Germany GmbH) at 700 nm. The full value used is the inhibitor-free reaction. […] The inhibitory values (IC50) are determined using either the program Symyx Assay Explorer® or Condosseo® from GeneData.

TNKS1 = biological target: T3, TNKS1 (Homo sapiens, UniProt O95271); assay: TNKS1 activity ELISA (autoparsylation assay); assay type: biochemical; conditions: GST-tagged Tnks-1 (1023-1327 aa)
T3 construct: GST-tagged Tnks-1 (1023-1327 aa, prepared in-house); made in house
Protocol: as §1, §2, §3, §4

[1] = GST-tagged Tnks-2 (873-1166 aa), read-out: IC50 [M] TNKS2 ELISA

T1 sequence (P09874 whole entry): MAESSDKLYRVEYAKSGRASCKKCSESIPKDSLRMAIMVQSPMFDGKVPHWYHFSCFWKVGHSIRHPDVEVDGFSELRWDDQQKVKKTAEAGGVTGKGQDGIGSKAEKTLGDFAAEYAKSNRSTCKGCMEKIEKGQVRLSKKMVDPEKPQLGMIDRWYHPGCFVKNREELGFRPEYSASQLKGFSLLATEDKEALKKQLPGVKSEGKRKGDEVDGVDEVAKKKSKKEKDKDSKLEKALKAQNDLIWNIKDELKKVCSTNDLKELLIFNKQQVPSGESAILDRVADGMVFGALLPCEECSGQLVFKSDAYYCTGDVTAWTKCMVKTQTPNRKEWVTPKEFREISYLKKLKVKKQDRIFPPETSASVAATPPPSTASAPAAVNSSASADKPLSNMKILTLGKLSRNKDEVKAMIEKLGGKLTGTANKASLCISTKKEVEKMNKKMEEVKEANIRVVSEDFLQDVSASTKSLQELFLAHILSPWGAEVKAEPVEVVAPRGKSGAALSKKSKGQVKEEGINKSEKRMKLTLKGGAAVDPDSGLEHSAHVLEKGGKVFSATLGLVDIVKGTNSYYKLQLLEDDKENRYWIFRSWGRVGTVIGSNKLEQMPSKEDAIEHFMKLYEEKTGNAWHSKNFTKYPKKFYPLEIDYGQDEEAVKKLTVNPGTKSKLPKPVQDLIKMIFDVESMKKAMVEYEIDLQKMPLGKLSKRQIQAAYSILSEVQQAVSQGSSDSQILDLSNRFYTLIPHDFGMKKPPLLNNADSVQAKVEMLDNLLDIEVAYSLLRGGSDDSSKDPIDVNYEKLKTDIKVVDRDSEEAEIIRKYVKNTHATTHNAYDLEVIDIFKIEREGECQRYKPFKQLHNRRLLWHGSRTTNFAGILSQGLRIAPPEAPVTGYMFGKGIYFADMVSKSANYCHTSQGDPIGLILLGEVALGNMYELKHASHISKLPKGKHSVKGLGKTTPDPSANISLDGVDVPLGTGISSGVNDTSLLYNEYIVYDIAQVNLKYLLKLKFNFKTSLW
T3 sequence (O95271 1023-1327): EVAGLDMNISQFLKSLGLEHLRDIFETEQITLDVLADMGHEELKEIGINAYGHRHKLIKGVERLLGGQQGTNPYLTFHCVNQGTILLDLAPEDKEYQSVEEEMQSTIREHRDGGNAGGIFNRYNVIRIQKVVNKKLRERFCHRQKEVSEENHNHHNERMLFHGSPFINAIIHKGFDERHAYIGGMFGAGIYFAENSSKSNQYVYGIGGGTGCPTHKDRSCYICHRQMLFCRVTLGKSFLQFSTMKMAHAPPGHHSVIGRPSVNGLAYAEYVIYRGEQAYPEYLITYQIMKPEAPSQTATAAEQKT
T2 sequence (Q9H2K2 873-1166): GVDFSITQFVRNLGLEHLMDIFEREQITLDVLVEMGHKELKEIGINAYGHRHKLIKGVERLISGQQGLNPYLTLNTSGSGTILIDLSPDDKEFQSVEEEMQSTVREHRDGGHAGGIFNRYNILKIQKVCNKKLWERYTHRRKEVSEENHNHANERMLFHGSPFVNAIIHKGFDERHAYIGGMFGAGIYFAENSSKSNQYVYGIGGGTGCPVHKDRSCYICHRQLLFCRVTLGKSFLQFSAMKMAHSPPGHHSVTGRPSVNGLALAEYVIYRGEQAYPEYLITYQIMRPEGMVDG

| Compound | IC50 (PARP-1) [nM] | EC50 (Tankyrases) [M] | IC50 (TNKS2; [1]) [M] | IC50 (TNKS1) [nM] | IC50 (TNKS2) [M] |
| --- | --- | --- | --- | --- | --- |
| Cc1ccc2c(=O)[nH]c(CCCC(=O)N3CCC(C(=O)c4cnn(C(C)C)c4)CC3)nn12 [Compound C223, 2-{4-[4-(1-Isopropyl-1H-pyrazole-4-carbonyl)-piperidin-1-yl]-4-oxo-butyl}-7-methyl-3H-pyrrolo[2,1-f][1,2,4]triazin-4-one] | 840 | 3.3e-09 | 5.1e-10 | 0.6 |  |
| Cc1scc2c(=O)[nH]c(CCCC(=O)N3CCC(c4cnc(N)c(C#N)c4)CC3)nc12 [Compound C115, 6-Amino-1′-[4-(7-methyl-4-oxo-3,4-dihydro-thieno[3,4-d]pyrimidin-2-yl)-butyryl]-1′,2′,3′,4′,5′,6′-hexahydro-[3,4′]bipyridinyl-5-carbonitrile trifluoroacetate] | 570 | 4.9e-08 | 1.3e-09 | 0.98 |  |
| CC(C)n1cc(C(=O)C2CCN(C(=O)CCCc3nn4cc(F)cc4c(=O)[nH]3)CC2)cn1 [Compound C221, 6-Fluoro-2-{4-[4-(1-isopropyl-1H-pyrazole-4-carbonyl)-piperidin-1-yl]-4-oxo-butyl}-3H-pyrrolo[2,1-f][1,2,4]triazin-4-one] | 1900 | 2.7e-08 | 2e-09 | 2.1 |  |
| Cc1csc2c(=O)[nH]c(CCCC(=O)N3CCC(c4cnc(N)c(-c5ncccn5)c4)CC3)nc12 [Compound C128, 2-{4-[4-(6-Amino-5-pyrimidin-2-yl-3-pyridyl)-1-piperidyl]-4-oxo-butyl}-7-methyl-3H-thieno[3,2-d]pyrimidin-4-one] | 230 | 3.3e-09 | 7.9e-10 | 0.11 |  |
| Cc1csc2c(=O)[nH]c(CCCC(=O)N3CCC(C(=O)c4cnn(C(C)C)c4)CC3)nc12 [Compound C225, 2-{4-[4-(1-Isopropyl-1H-pyrazole-4-carbonyl)-piperidin-1-yl]-4-oxo-butyl}-7-methyl-3H-thieno[3,2-d]pyrimidin-4-one] | 700 | 1.4e-08 | 4e-10 | 0.73 |  |
| Cn1ccc2c(=O)[nH]c(CCCC(=O)N3CCC(c4nnc(-c5ccccc5)o4)CC3)nc21 [Compound C184, 7-Methyl-2-{4-oxo-4-[4-(5-phenyl-[1,3,4]oxadiazol-2-yl)-piperidin-1-yl]-butyl}-3,7-dihydro-pyrrolo[2,3-d]pyrimidin-4-one] | 1900 | 4.7e-07 | 2.5e-09 | 4.7 |  |
| Cc1csc2c(=O)[nH]c(CCCC(=O)N3CCC(C(=O)c4ccc(F)cc4)CC3)nc12 [Compound C131, 2-{4-[4-(4-Fluorobenzoyl)-1-piperidyl]-4-oxo-butyl}-7-methyl-3H-thieno[3,2-d]pyrimidin-4-one] | 270 | 1.6e-08 | 2.1e-10 | 0.36 |  |
| Cn1ncc2c(=O)[nH]c(CCCC(=O)N3CCC(C(=O)c4ccc(F)c(F)c4)CC3)nc21 [Compound C246, 6-{4-[4-(3,4-Difluoro-benzoyl)-piperidin-1-yl]-4-oxo-butyl}-1-methyl-1,5-dihydro-pyrazolo[3,4-d]pyrimidin-4-one] | 13000 | 2.5e-08 | 3.2e-10 | 0.63 |  |
| COc1ccc(C(=O)C2CCN(C(=O)CCCc3nc4c(ccn4C)c(=O)[nH]3)CC2)cc1 [Compound C40, 2-{4-[4-(4-Methoxy-benzoyl)-piperidin-1-yl]-4-oxo-butyl}-7-methyl-3,7-dihydro-pyrrolo[2,3-d]pyrimidin-4-one] | 1600 | 3.2e-09 | < 1e-10 | 0.17 |  |
| Cn1ncc2c(=O)[nH]c(CCCC(=O)N3CCC(c4cnc(N)c(C#N)c4)CC3)nc21 [Compound C44, 6-Amino-1′-[4-(1-methyl-4-oxo-4,5-dihydro-1H-pyrazolo[3,4-d]pyrimidin-6-yl)-butyryl]-1′,2′,3′,4′,5′,6′-hexahydro-[3,4′]bipyridinyl-5-carbonitrile] | 18000 | 4e-07 | 9.7e-10 | 1.6 |  |
| COc1ccc(C(=O)C2CCN(C(=O)CCCc3nc4c(ccn4C)c(=O)[nH]3)CC2)cn1 [Compound C181, 2-{4-[4-(6-Methoxy-pyridine-3-carbonyl)-piperidin-1-yl]-4-oxo-butyl}-7-methyl-3,7-dihydro-pyrrolo[2,3-d]pyrimidin-4-one] | 2300 | 7.3e-09 | 2.4e-10 | 0.65 |  |
| COc1ccc(C(=O)C2CCN(C(=O)CCCc3nn4cc(C)cc4c(=O)[nH]3)CC2)cn1 [Compound C159, 2-{4-[4-(6-Methoxy-pyridine-3-carbonyl)-piperidin-1-yl]-4-oxo-butyl}-6-methyl-3H-pyrrolo[2,1-f][1,2,4]triazin-4-one] | 2200 | 3.6e-08 | 2.7e-09 | 1.2 |  |
| CC(C)n1cc(C(=O)C2CCN(C(=O)CCCc3cn4cccc4c(=O)[nH]3)CC2)cn1 [Compound C210, 3-{4-[4-(1-Isopropyl-1H-pyrazole-4-carbonyl)-piperidin-1-yl]-4-oxo-butyl}-2H-pyrrolo[1,2-a]pyrazin-1-one] | 7500 | 3.6e-09 | 3.2e-10 | 0.38 |  |
| O=C(CCCc1nc2c(c(=O)[nH]1)COCC2)N1CCC(c2nnc(-c3ccccc3)o2)CC1 [Compound C196, 2-{4-Oxo-4-[4-(5-phenyl-[1,3,4]oxadiazol-2-yl)-piperidin-1-yl]-butyl}-3,5,7,8-tetrahydro-pyrano[4,3-d]pyrimidin-4-one] | 6500 | 2e-06 |  |  | 5.7e-08 |
| Cc1ccc2c(=O)[nH]c(CCCC(=O)N3CCC(C(=O)c4cnn(C(C)C)c4)CC3)cn12 [Compound C211, 3-{4-[4-(1-Isopropyl-1H-pyrazole-4-carbonyl)-piperidin-1-yl]-4-oxo-butyl}-6-methyl-2H-pyrrolo[1,2-a]pyrazin-1-one] | 14000 | 1.4e-08 |  |  | 2.8e-10 |
| COc1ccc(C(=O)C2CCN(C(=O)CCCc3cn4c(C)cnc4c(=O)[nH]3)CC2)cc1 [Compound C32, 6-{4-[4-(4-Methoxybenzoyl)-1-piperidyl]-4-oxo-butyl}-3-methyl-7H-imidazo[1,2-a]pyrazin-8-one] | 17000 |  | 1.4e-10 | 0.12 |  |
| CC(C)n1cc(C(=O)C2CCN(C(=O)CCCc3cn4c(F)ccc4c(=O)[nH]3)CC2)cn1 [Compound C212, 6-Fluoro-3-{4-[4-(1-isopropyl-1H-pyrazole-4-carbonyl)-piperidin-1-yl]-4-oxo-butyl}-2H-pyrrolo[1,2-a]pyrazin-1-one] | 5600 |  | 1.3e-09 | 0.39 |  |
| COc1ccc(C(=O)C2CCN(C(=O)CCCc3cn4c(F)ccc4c(=O)[nH]3)CC2)cc1 [Compound C9, 6-Fluoro-3-{4-[4-(4-methoxy-benzoyl)-piperidin-1-yl]-4-oxo-butyl}-2H-pyrrolo[1,2-a]pyrazin-1-one] |  | 7.2e-10 | 1.3e-10 | 0.2 |  |
| COc1ccc(C(=O)C2CCN(C(=O)CCCc3cn4ccnc4c(=O)[nH]3)CC2)cc1 [Compound C13, 6-{4-[4-(4-Methoxy-benzoyl)-piperidin-1-yl]-4-oxo-butyl}-7H-imidazo[1,2-a]-pyrazin-8-one] |  | 4.1e-07 | 7.4e-10 | 1.2 |  |
| Cn1cc(C(=O)C2CCN(C(=O)CCCc3cn4cncc4c(=O)[nH]3)CC2)cn1 [Compound C207, 6-{4-[4-(1-Methylpyrazole-4-carbonyl)-1-piperidyl]-4-oxo-butyl}-7H-imidazo[1,5-a]pyrazin-8-one] |  | 1.1e-06 | 2.8e-09 | 7.1 |  |
